Source: paper PMC12084609, “Structural insights into small-molecule agonist recognition and activation of complement receptor C3aR” (The EMBO Journal, 2025)
Substitutions are numbered along the chain they refer to. “And” between values parts separate entries of the source, which are not always exact repeats. Equal entries are not always repeated. Where two headings read alike, the source gives them in different places.

Legend:
Assay type in all cases: cell-based
C3aR WT = molecular target: T1, C3aR WT (Homo sapiens, UniProt Q16581); experiment: GloSensor-based cAMP assay, WT C3aR (HEK293T); conditions: for remaining activity at 0.0001 µM / remaining activity at 10 pM: HEK-293T; for IC50: WT C3aR
T1 construct: expressed in transfected cells; host or cells: HEK293T
T1 sequence (Q16581 1-482): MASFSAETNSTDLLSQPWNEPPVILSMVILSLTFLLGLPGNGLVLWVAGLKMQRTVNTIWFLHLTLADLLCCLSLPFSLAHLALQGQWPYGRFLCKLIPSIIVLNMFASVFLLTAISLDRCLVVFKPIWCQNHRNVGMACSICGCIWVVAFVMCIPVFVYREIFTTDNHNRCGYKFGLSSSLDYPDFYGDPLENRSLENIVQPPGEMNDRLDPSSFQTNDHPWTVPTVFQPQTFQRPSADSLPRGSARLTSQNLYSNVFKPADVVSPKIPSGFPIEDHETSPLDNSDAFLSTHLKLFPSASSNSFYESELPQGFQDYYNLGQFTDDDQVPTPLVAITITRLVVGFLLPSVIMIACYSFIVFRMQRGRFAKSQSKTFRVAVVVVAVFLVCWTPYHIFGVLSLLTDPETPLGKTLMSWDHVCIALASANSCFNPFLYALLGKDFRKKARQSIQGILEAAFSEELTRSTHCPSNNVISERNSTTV
Protocol: (§1) HEK293T cells were seeded on 6-well plates (NEST) and transfected with pGlosensor™-22F plasmids (Promega) and pcDNA3.1 plasmids encoding C3aR or its mutants an with N-terminal FLAG tag. After 48 h, cells were detached with Accutase solution (Sigma-Aldrich) and washed with PBS, and resuspended in assay buffer (CO2-independent medium with 0.5 mg mL^−1D-luciferin). 100,000–200,000 cells were seeded on 96-well white bottom plates (SPL) and incubated at 37 °C for 45 min followed by 45 min incubation at room temperature. After 90 min of incubation, basal luminescence signals were recorded. In total, 25 μl of test ligand with various concentrations and 1 μM Forskolin (Sigma-Aldrich) were treated to the cells and luminescence signals were measured by Tristar 2 LB 942 multimode reader (Berthold). […] Relative luminescence unit (%) was calculated with the signal of wells treated with vehicle as 0% and the signal of wells treated with 1 μM Forskolin as 100% (DiRaddo et al, [2014]). Nonlinear regression was performed using a three-parameter logistic equation.

C3aR D417^7.35A = molecular target: T2, C3aR D417^7.35A (Homo sapiens, UniProt Q16581, D417A); experiment: GloSensor-based cAMP assay, C3aR mutant D417A
T2 construct: expressed in transfected cells; host or cells: HEK293T
T2 sequence (Q16581 1-482 D417A): T1 sequence (Q16581 1-482) with D417A
Protocol: as §1

C3aR I421^7.39A = molecular target: T3, C3aR I421^7.39A (Homo sapiens, UniProt Q16581, I421A); experiment: GloSensor-based cAMP assay, C3aR mutant I421A
T3 construct: expressed in transfected cells; host or cells: HEK293T
T3 sequence (Q16581 1-482 I421A): T1 sequence (Q16581 1-482) with I421A
Protocol: as §1

[1] = Dunnett's multiple comparisons test, WT minus mutant

For `Cc1cc(C(c2ccc(Cl)cc2)c2ccc(Cl)cc2)sc1C(=O)N[C@@H](CCCNC(=N)N)C(=O)O` [JR14a, reference compound], the remaining activity at 0.0001 µM (C3aR WT; read-out: cAMP response (% Forskolin), Log[ligand (M)] -10, individual replicates) was 93.3%, the remaining activity at 10 pM (C3aR WT; read-out: cAMP response (% Forskolin), Log[ligand (M)] -11, individual replicates) was 95.3% and the remaining activity at 0.0001 µM (C3aR WT; read-out: cAMP response (% Forskolin), WT, Log[JR14a (M)] -10, single replicates) was 93.3%. For the same compound, the remaining activity at 10 pM (C3aR WT; read-out: cAMP response (% Forskolin), WT, Log[JR14a (M)] -11, single replicates) was 95.3%, the IC50 (C3aR WT; decrease in cAMP levels, read-out: IC50) was 0.004 µM and the IC50 (C3aR WT; individual replicates, read-out: pIC50 (Replicate) (converted)) was 0.00631 µM and 0.00398 µM and 0.00501 µM. For the same compound, the “mode of action at C3aR” value (C3aR WT; from BRET and cAMP accumulation assays) was “agonist”, the IC50 (C3aR WT; pIC50 (Replicate), individual replicates) was 2.63 nM and 3.09 nM and 7.08 nM (2×) and 5.75 nM (2×) and 11.5 nM and 8.13 nM and 2.45 nM (2×) and 1.78 nM and the IC50 (C3aR WT; pIC50 Value, Figure EV1B numerical data, curve fit) was 0.00389 µM. The IC50 (C3aR WT; pIC50 ± SEM (Mean), 1 μM Forskolin, mean of independent experiments) was 0.00457 µM, the “Span Value” (C3aR WT; span of cAMP response (% Forskolin) curve, Figure EV1B numerical data) was 84.43 and the remaining activity at 1 µM (C3aR D417^7.35A; D417A, Log[JR14a (M)] -6, single replicates, read-out: cAMP response (% Forskolin)) was 35.7%. The remaining activity at 0.1 µM (C3aR D417^7.35A; D417A, Log[JR14a (M)] -7, single replicates, read-out: cAMP response (% Forskolin)) was 87.8%, the remaining activity at 0.001 µM (C3aR D417^7.35A; D417A, Log[JR14a (M)] -9, single replicates, read-out: cAMP response (% Forskolin)) was 105% and the remaining activity at 0.0001 µM (C3aR D417^7.35A; D417A, Log[JR14a (M)] -10, single replicates, read-out: cAMP response (% Forskolin)) was 104%. The “ΔpIC50 ± SE of Diff.” value (C3aR D417^7.35A; D417^7.35A relative to WT C3aR) was -2.18 ± 0.05, the “Mean Diff. of pIC50, WT vs. D417A” value (C3aR D417^7.35A; [1]) was 2.176 and the IC50 (C3aR D417^7.35A; IC50, D417^7.35A, dose-response plot, Not calculated = entire loss of signaling) was 0.425 µM. The IC50 (C3aR D417^7.35A; pIC50 (Replicate), D417^7.35A, individual replicates) was 0.575 µM and 0.339 µM and 0.38 µM, the IC50 (C3aR D417^7.35A; pIC50 ± SEM (Mean), D417^7.35A, mean of independent experiments, Not calculated = entire loss of signaling) was 0.417 µM and the “Mean Diff. of pIC50, WT vs. I421A” value (C3aR I421^7.39A; [1]) was 1.797. The remaining activity at 0.01 µM (C3aR I421^7.39A; I421A, Log[JR14a (M)] -8, single replicates, read-out: cAMP response (% Forskolin)) was 91.4%, the remaining activity at 0.001 µM (C3aR I421^7.39A; I421A, Log[JR14a (M)] -9, single replicates, read-out: cAMP response (% Forskolin)) was 92.7% and the remaining activity at 0.0001 µM (C3aR I421^7.39A; I421A, Log[JR14a (M)] -10, single replicates, read-out: cAMP response (% Forskolin)) was 96.4%. The remaining activity at 10 pM (C3aR I421^7.39A; I421A, Log[JR14a (M)] -11, single replicates, read-out: cAMP response (% Forskolin)) was 93.5%, the “reduction in ligand-induced signaling vs WT” value (C3aR I421^7.39A; I421^7.39A mutant) was 60 fold and the “ΔpIC50 ± SE of Diff.” value (C3aR I421^7.39A; I421^7.39A relative to WT C3aR) was -1.80 ± 0.06. The IC50 (C3aR I421^7.39A; IC50, I421^7.39A, dose-response plot) was 0.204 µM, the IC50 (C3aR I421^7.39A; pIC50 (Replicate), I421^7.39A, individual replicates) was 0.229 µM and 0.263 µM and 0.331 µM and 0.115 µM and the IC50 (C3aR I421^7.39A; pIC50 ± SEM (Mean), I421^7.39A, mean of independent experiments) was 0.219 µM.
